Read-outs that look alike come from different tables or passages of the source.
Legend:
METTL3/14 [1] = target: T1, METTL3/14 (Homo sapiens (Human), UniProt Q86U44); assay: biochemical
METTL3/14 [2] = target: T1, METTL3/14
KASUMI-1 cells = assay: Kasumi cell assay (CellTiter-Glo cell growth); assay type: cell-based; conditions: Homo sapiens, Kasumi 1; treated for 120 hours, CellTiter-Glo luminescence; read-out: KASUMI1 cells IC50
Experimental: Upon treatment, Kasumil cells were incubated for 10 min at RT with the CellTiter-Glo reagent (G7571, Promega). Measurement of the luminescence signal was performed on a microplate reader (Ensight, PerkinElmer).

Caov-3 cells = assay: Caov3 CTG proliferation assay; assay type: cell-based; conditions: Homo sapiens, Caov-3; treated for 120 hours, CellTiter-Glo luminescence; read-out: Caov3 cells IC50
Experimental: CTG Assay (Caov3 Cell Line)
Upon treatment, Coav-3 cells were incubated for 10 min at RT with the CellTiter-Glo reagent (G7571, Promega). Measurement of the luminescence signal was performed on a microplate reader (Ensight, PerkinElmer).
Caov3 CTG Assay—Proliferation Assay

T1 sequence (Q86U44 whole entry): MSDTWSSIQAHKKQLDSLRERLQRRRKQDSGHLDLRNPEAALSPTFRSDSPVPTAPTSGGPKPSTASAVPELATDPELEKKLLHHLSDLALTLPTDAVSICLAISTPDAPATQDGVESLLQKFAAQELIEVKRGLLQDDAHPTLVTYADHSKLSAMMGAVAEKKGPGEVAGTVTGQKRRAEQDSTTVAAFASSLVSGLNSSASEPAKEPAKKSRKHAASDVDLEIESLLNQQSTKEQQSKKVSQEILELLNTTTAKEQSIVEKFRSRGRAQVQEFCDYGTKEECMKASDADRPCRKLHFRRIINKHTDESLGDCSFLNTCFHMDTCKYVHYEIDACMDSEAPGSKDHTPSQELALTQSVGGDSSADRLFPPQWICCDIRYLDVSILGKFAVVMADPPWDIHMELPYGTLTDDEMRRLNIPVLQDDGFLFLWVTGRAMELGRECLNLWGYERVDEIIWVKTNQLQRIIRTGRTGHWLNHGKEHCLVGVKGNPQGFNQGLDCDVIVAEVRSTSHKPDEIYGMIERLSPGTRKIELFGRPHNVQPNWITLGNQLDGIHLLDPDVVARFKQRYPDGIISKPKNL
T1 sequence (Q9HCE5 whole entry partner): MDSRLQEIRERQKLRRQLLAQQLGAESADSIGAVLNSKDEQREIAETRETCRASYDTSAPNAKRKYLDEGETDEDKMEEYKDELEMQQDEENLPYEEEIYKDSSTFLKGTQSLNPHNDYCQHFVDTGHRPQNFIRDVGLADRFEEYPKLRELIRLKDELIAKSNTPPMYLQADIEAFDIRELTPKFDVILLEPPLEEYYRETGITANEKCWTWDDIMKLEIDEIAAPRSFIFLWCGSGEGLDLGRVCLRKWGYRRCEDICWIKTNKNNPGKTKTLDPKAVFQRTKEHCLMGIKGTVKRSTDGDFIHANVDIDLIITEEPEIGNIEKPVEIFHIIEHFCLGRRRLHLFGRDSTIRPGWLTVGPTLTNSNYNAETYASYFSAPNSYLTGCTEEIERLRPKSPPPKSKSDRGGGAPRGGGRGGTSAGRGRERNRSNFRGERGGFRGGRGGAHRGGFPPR

| IC50 (METTL3/14 [1]) | SMILES | IC50 (METTL3/14 [2]) | IC50 (KASUMI-1 cells) | IC50 (Caov-3 cells) |
| --- | --- | --- | --- | --- |
| 19.3 nM | c1cc(-n2cc(Cc3ccc4cc(CNCC5CCC5)[nH]c4c3)nn2)c2cncn2c1 [Example 144, (cyclobutyl-methyl)({6-[(1-{imidazo[1,5-a]pyridin-8-yl}-1H-1,2,3-triazol-4-yl)methyl]-1H-indol-2-yl}methyl) amine] | – | – | – |
| – | O=C(NCc1ccc2cc(CN3CC4(CC(F)C4)C3)[nH]c2c1)c1cc(=O)n2ccccc2n1 [Compound 93, N-{[2-({6-fluoro-2-azaspiro[3.3]heptanean-2-yl}methyl)-1H-indol-6-yl]methyl}-4-oxo-4H-pyrido[1,2-a]pyrimidine-2-carboxamide] | 6.1 nM | 1330 nM | 453 nM |
| – | CC12CC(CNCc3cc4ccc(CNC(=O)c5cc(=O)n6ccccc6n5)cc4[nH]3)(C1)C2 [Compound 77, N-[(2-{[({3-methylbicyclo[1.1.1]pentan-1-yl}methyl)amino]methyl}-1H-indol-6-yl)methyl]-4-oxo-4H-pyrido[1,2-a]pyrimidine-2-carboxamide] | 6.1 nM | 1760 nM | 701 nM |
| – | CC1(CNCc2cc3ccc(CNC(=O)c4cc(=O)n5ccccc5n4)cc3[nH]2)CCC1 [Compound 117, N-{[2-({[(1-methylcyclobutyl)methyl]amino}methyl)-1H-indol-6-yl]methyl}-4-oxo-4H-pyrido[1,2-a]pyrimidine-2-carboxamide] | 6.1 nM | 1730 nM | 502 nM |
| – | O=C(NCc1ccc2cc(CNCC34CCC(C3)C4)[nH]c2c1)c1cc(=O)n2ccccc2n1 [Compound 76, N-[(2-{[({bicyclo[2.1.1]hexan-1-yl}methyl)amino]methyl}-1H-indol-6-yl)methyl]-4-oxo-4H-pyrido[1,2-a]pyrimidine-2-carboxamide] | 6.1 nM | 698 nM | 242 nM |
| – | O=C(NCc1cnc2cc(CNCC34CC(C3)C4)[nH]c2c1)c1cc(=O)n2ccccc2n1 [Example 126, N-[(2-{[({bicyclo[1.1.1]pentan-1-yl}methyl)amino]methyl}-1H-pyrrolo[3,2-b]pyridin-6-yl)methyl]-4-oxo-4H-pyrido[1,2-a]pyrimidine-2-carboxamide] | 6.1 nM | 3070 nM | 523 nM |
| – | O=C(NCc1ccc2cc(CN3CC4(CCCC4)C3)[nH]c2c1)c1cc(=O)n2ccccc2n1 [Compound 81, N-{[2-({2-azaspiro[3.4]octan-2-yl}methyl)-1H-indol-6-yl]methyl}-4-oxo-4H-pyrido[1,2-a]pyrimidine-2-carboxamide] | 6.1 nM | 1030 nM | 564 nM |
| – | O=C(NCc1ccc2cc(CNCC3CCC3)[nH]c2c1)c1cc(=O)n2ccccc2n1 [Example 2, N-[(2-{[(cyclobutylmethyl)amino]methyl}-1H-indol-6-yl)methyl]-4-oxo-4H-pyrido[1,2-a]pyrimidine-2-carboxamide] | 6.1 nM | 587 nM | 237 nM |
| – | CCC1(CC)CN(Cc2cc3ccc(CNC(=O)c4cc(=O)n5ccccc5n4)cc3[nH]2)C1 [Compound 102, N-({2-[(3,3-diethylazetidin-1-yl)methyl]-1H-indol-6-yl}methyl)-4-oxo-4H-pyrido[1,2-a]pyrimidine-2-carboxamide] | 6.1 nM | 525 nM | 230 nM |
| – | FC12CC(CNCc3cc4ccc(Cn5cc(-c6cccn7cncc67)nn5)cc4[nH]3)(C1)C2 [Example 124, ({3-fluorobicyclo[1.1.1]pentan-1-yl}methyl)({6-[(4-{imidazo[1,5-a]pyridin-8-yl}-1H-1,2,3-triazol-1-yl)methyl]-1H-indol-2-yl}methyl)amine] | 6.1 nM | 662 nM | 266 nM |
| – | CC12CC(CNCc3cc4cnc(CNC(=O)c5cc(=O)n6ccccc6n5)cc4[nH]3)(C1)C2 [Compound 129, N-[(2-{[({3-methylbicyclo[1.1.1]pentan-1-yl}methyl)amino]methyl}-1H-pyrrolo[3,2-c]pyridin-6-yl)methyl]-4-oxo-4H-pyrido[1,2-a]pyrimidine-2-carboxamide] | 6.1 nM | 2900 nM | 699 nM |
| – | O=C(NCc1ccc2cc(CNC3CC34CCC4)[nH]c2c1)c1cc(=O)n2ccccc2n1 (stereo not shown) [Compound 110, 4-oxo-N-({2-[({spiro[2.3]hexan-1-yl}amino)methyl]-1H-indol-6-yl}methyl)-4H-pyrido[1,2-a]pyrimidine-2-carboxamide] | 6.1 nM | 1140 nM | 412 nM |
| – | CC1(NCc2cc3ccc(CNC(=O)c4cc(=O)n5ccccc5n4)cc3[nH]2)CCCC1 [Example 114, N-[(2-{[(1-methylcyclopentyl)amino]methyl}-1H-indol-6-yl)methyl]-4-oxo-4H-pyrido[1,2-a]pyrimidine-2-carboxamide] | 6.1 nM | 1460 nM | 679 nM |
| – | CC(NCc1cc2ccc(CNC(=O)c3cc(=O)n4ccccc4n3)cc2[nH]1)C12CC(F)(C1)C2 (stereo not shown) [Compound 120, N-[(2-{[(1-{3-fluorobicyclo[1.1.1]pentan-1-yl}ethyl)amino]methyl}-1H-indol-6-yl)methyl]-4-oxo-4H-pyrido[1,2-a]pyrimidine-2-carboxamide] | 6.1 nM | 447 nM | 203 nM |
| – | [2H]C([2H])(NCC1CCC1)c1cc2ccc(CNC(=O)c3cc(=O)n4ccccc4n3)cc2[nH]1 [Example 47, N-[[2-[(Cyclobutylmethylamino)-dideuterio-methyl]-1H-indol-6-yl]methyl]-4-oxo-pyrido[1,2-a]pyrimidine-2-carboxamide] | 6.1 nM | 344 nM | 186 nM |
| – | O=C(NCc1cc2[nH]c(CNCC34CC(F)(C3)C4)cc2cn1)c1cc(=O)n2ccccc2n1 [Compound 132, N-[(2-{[({3-fluorobicyclo[1.1.1]pentan-1-yl}methyl)amino]methyl}-1H-pyrrolo[3,2-c]pyridin-6-yl)methyl]-4-oxo-4H-pyrido[1,2-a]pyrimidine-2-carboxamide] | 6.1 nM | 785 nM | 268 nM |
| – | O=C(NCc1ccc2cc(CN3CCC4(CCCC4)C3)[nH]c2c1)c1cc(=O)n2ccccc2n1 [Compound 113, N-{[2-({2-azaspiro[4.4]nonan-2-yl}methyl)-1H-indol-6-yl]methyl}-4-oxo-4H-pyrido[1,2-a]pyrimidine-2-carboxamide] | 6.1 nM | 1650 nM | 575 nM |
| – | O=C(NCc1ccc2c(F)c(CNCC3CCC3)[nH]c2c1)c1cc(=O)n2ccccc2n1 [Example 45, N-[(2-{[(cyclobutylmethyl)amino]methyl}-3-fluoro-1H-indol-6-yl)methyl]-4-oxo-4H-pyrido[1,2-a]pyrimidine-2-carboxamide] | 6.1 nM | 764 nM | 574 nM |
| – | O=C(NCc1cc2[nH]c(CNCC3CCC3)cc2cn1)c1cc(=O)n2ccccc2n1 [Compound 130, N-[(2-{[(cyclobutylmethyl)amino]methyl}-1H-pyrrolo[3,2-c]pyridin-6-yl)methyl]-4-oxo-4H-pyrido[1,2-a]pyrimidine-2-carboxamide] | 6.1 nM | 3160 nM | 457 nM |
| – | O=C(NCc1cc2[nH]c(CNCC3CCC3)cc2cc1F)c1cc(=O)n2ccccc2n1 [Compound 41, N-[[2-[(cyclobutylmethylamino)methyl]-5-fluoro-1H-indol-6-yl]methyl]-4-oxo-pyrido[1,2-a]pyrimidine-2-carboxamide] | 6.1 nM | 309 nM | 192 nM |
| – | O=C(NCc1ccc2cc(CN3CCC4(CCC4)C3)[nH]c2c1)c1cc(=O)n2ccccc2n1 [Compound 104, N-{[2-({6-azaspiro[3.4]octan-6-yl}methyl)-1H-indol-6-yl]methyl}-4-oxo-4H-pyrido[1,2-a]pyrimidine-2-carboxamide] | 6.1 nM | 661 nM | 237 nM |

Reference: patent US11725010B2, “Polyheterocyclic compounds as METTL3 inhibitors” (Storm Therapeutics Limited, priority 2019, dated 2023)
